# Measured values reported in a melting point compilation (Tetko et al.).
row,SMILES,melting point [°C]
1,Cc1cc(C)c2ncc(C#N)c(Cl)c2c1,141 to 143
2,CNS(=O)(=O)c1cc(C(=O)O)ccc1F,209 to 211
3,Cn1cnnc1-c1ccnc(N)c1,204 to 206
4,COc1cc(OC)c(S(=O)(=O)Cl)cc1S(=O)(=O)Cl,139 to 141
5,O=C(O)c1cc(S(=O)(=O)Cl)c(F)cc1F,129 to 131
6,Cc1nnc2[nH]cc(C(=O)NN)cc1-2,289 to 291
7,Cc1cc(=O)[nH]n1C,169 to 171
8,CC(C)(C)OC(=O)NCC(C)(C)C(=O)O,116 to 118
9,Cc1cc(C(=O)O)nn1-c1ccc(Cl)cc1Cl,199 to 201
10,Nc1cc(C(=O)O)ccc1OC(F)F,155 to 157
11,O=C(CBr)c1ccc(N2CCCC2=O)cc1,130 to 132
12,O=C(O)C(O)C1CCOCC1 (stereo not drawn),79 to 81
13,CC1(c2ccc(F)cc2F)NC(=O)NC1=O (stereo not drawn),194 to 196
14,Cc1cccc2[nH]cc(C=O)c12,188 to 190
15,CC1(n2cc(C=O)cn2)CCS(=O)(=O)C1 (stereo not drawn),84 to 86
16,Sc1nc2ncccn2n1,234 to 236
17,CC(=O)Nc1cccc2c1CCNC2,141 to 143
18,O=[N+]([O-])C=Cc1ccc(F)cc1F,55 to 57
19,Cc1ccc(Oc2ccc(Cl)cc2NC(=O)CCl)cc1,87 to 89
20,O=C1CN(Cc2ccc(Br)cc2F)CCN1,142 to 144
21,Nc1ccc(NC(=O)NC2CC2)cc1,161 to 163
22,CC(Cl)C(=O)NC(C)(C)C (stereo not drawn),84 to 86
23,O=C(O)c1cc(Br)c2c(c1)OCCO2,258 to 260

row,SMILES,melting point [°C]
1,Cc1nc(Cc2nnc(S)o2)cs1,194 to 196
2,COc1cccc(NC(=O)COc2ccc(C(=O)O)cc2)c1,131 to 134
3,CC(C)NC(=O)NC(=O)CCl,86 to 88
4,O=C(O)c1cc(-c2c(F)cccc2F)no1,181 to 183
5,O=C(O)c1cc(S(=O)(=O)NCc2ccco2)c(Cl)cc1Cl,149 to 151
6,Nc1nncc(-c2ccc(Br)cc2)n1,258 to 260
7,CS(=O)(=O)N1CCN(C(=O)c2ccc(O)cc2)CC1,211 to 213
8,Cc1c(C)n(Cc2ccco2)c2ncnc(N)c12,180 to 182
9,Nc1[nH]ncc1-c1nc2cc(Cl)ccc2s1,274 to 276
10,CC(CC(=O)O)c1ccc(C(F)(F)F)cc1 (stereo not drawn),88 to 90
11,Cc1cc(C)nc(N)c1,63 to 64
12,NC(=O)C1CCCCN1C(=O)c1cccc(Br)c1 (stereo not drawn),177 to 179
13,COCCN1C(=O)CC(=O)NC1=S,148 to 150
14,CCCCN(CC)c1ccc(C(=O)O)cc1,137 to 139
15,N#Cc1ccc(NCCC(N)=O)c(F)c1,156 to 158
16,O=c1c(Br)c[nH]cc1[N+](=O)[O-],332 to 334
17,Cc1ncsc1C(=O)Cl,62 to 64
18,Cc1cc(C#N)c(N)s1,100 to 102
19,O=C(O)c1cc(F)c(F)cc1I,127 to 129
20,CC(C)N1C(=O)CNC1=O,83 to 85
21,O=C(O)CNC(=O)c1ccc2[nH]nnc2c1,215 to 217
22,COCCN(C)S(N)(=O)=O,34 to 36
23,COc1ccc(CNc2nccs2)c(OC)c1,112 to 114

row,SMILES,melting point [°C]
1,Cc1ccc(C2(C)NC(=O)NC2=O)cc1 (stereo not drawn),207 to 209
2,O=C(O)CNC(=O)c1c(Cl)cccc1[N+](=O)[O-],186 to 188
3,O=C1NC(=O)N(CCc2cccs2)C1=O,118 to 120
4,CCc1cccc2c(C3=CCNCC3)c[nH]c12,190 to 192
5,CC(C)(C)NS(=O)(=O)c1cc(N)ccc1F,138 to 140
6,COc1ccc(N)cc1OCCO,99 to 101
7,COc1cc(C=O)cc2c1OCCO2,81 to 83
8,COCCNC(=O)CC#N,78 to 80
9,CC(Cl)C(=O)c1c[nH]c2ncccc12 (stereo not drawn),162 to 164
10,O=C(O)c1ccc2c(c1)C(=O)N(C1CC1)C2=O,220 to 222
11,Cc1[nH]c2c(Cl)cccc2c1C=O,229 to 231
12,CC(Cl)C(=O)NC(C)c1ccc(Cl)cc1 (stereo not drawn),127 to 129
13,Cc1nc(-c2ccncc2)nc(Cl)c1C,112 to 114
14,Cn1c(S)nnc1C1CCS(=O)(=O)C1 (stereo not drawn),151 to 153
15,O=C(O)c1cnc(O)cc1O,293 to 295
16,O=C(O)CCOc1cccnc1,174 to 176
17,O=[N+]([O-])c1ccc(-c2cn3ccsc3n2)cc1,284 to 286
18,N#Cc1cnc2c(F)ccc(F)c2c1Cl,172 to 174
19,O=C(CO)c1ccc(Cl)cc1,124 to 126
20,Nc1nc(Br)cn2ccnc12,215 to 217
21,CCCS(N)(=O)=O,47 to 49
22,Nc1cc(CC2CC3CCC2C3)no1 (stereo not drawn),86 to 88
23,Nc1ccc(C(=O)O)cc1CCCC(=O)O,203 to 205

row,SMILES,melting point [°C]
1,CC(C)(C)OC(=O)NCCNS(=O)(=O)c1cccc(N)c1,148 to 150
2,Cc1cc(Br)ccc1NC(=O)CCN,77 to 79
3,O=S(=O)(Nc1nccs1)c1ccc(Cl)nc1,229 to 231
4,Cc1c(N)cccc1N1CCOC1=O,140 to 142
5,O=C(O)c1cnn(-c2ncccc2Cl)c1C(F)(F)C(F)(F)F,141 to 143
6,Cc1ccc(CNC(=O)NCC(=O)O)cc1,174 to 176
7,Nc1ccnn1C1CCCCC1,80 to 82
8,NC(=O)N1CCCCC1C(=O)O (stereo not drawn),139 to 141
9,CCOC(C)c1ncc[nH]1 (stereo not drawn),69 to 71
10,O=C(CCl)Nc1ccccc1I,38 to 40
11,Cc1c(F)cc(C(=O)O)cc1[N+](=O)[O-],168 to 170
12,Cc1csc(-c2cccc(N)c2)n1,82 to 84
13,OCc1nc(-c2ccco2)no1,123 to 125
14,O=c1cc(O)c2ccccc2o1,211 to 215
15,COc1ccc(C(=O)O)cn1,172 to 174
16,Cc1noc(C)c1COc1ccc(C(=O)O)cc1,224 to 226
17,CCN(C(=O)OC(C)(C)C)C(C(N)=S)c1cccnc1 (stereo not drawn),139 to 141
18,COc1ccc2c(c1)C(=NO)C(=O)N2,236 to 238
19,NC(=O)C=Cc1cccnc1,149 to 151
20,CC(=O)c1c(C#N)c2n(c1C)CCC2,132 to 134
21,Cc1ccc([N+](=O)[O-])cc1S(=O)(=O)N1CCC(C(=O)O)CC1,107 to 109
22,O=C(O)Cc1ccc([N+](=O)[O-])cc1F,162 to 164

# Further lines, results first:
row,melting point [°C],SMILES
1,225 to 227,O=C(O)Cn1cc([N+](=O)[O-])ccc1=O
2,154 to 156,O=C(O)COc1ccc(Oc2ccccn2)cc1
3,201 to 203,Cc1ccc(NC(=O)Nc2ccccc2)cc1N
4,179 to 181,O=C(O)c1cccnc1-n1ccnc1
5,69 to 71,COC(=O)CCCOc1ccc(N)c2ccccc12
6,187 to 189,O=C(O)c1cc(Cl)nc2ccccc12
7,194 to 196,O=C(O)c1cc(-n2ccnc2)ccn1
8,205 to 207,O=C(O)c1cccc(NS(=O)(=O)c2ccc3ccccc3c2)c1
9,91 to 93,O=Cc1cn(-c2ccccc2)nc1-c1cccc(Br)c1
10,136 to 138,O=C(Nc1cccc(Br)c1)c1ccccc1
11,199 to 201,Sc1nnc(-c2ccccc2)s1
12,135 to 137,N#Cc1ccc(-n2cnc3ccccc32)cc1
13,91 to 93,OCc1cn(-c2ccccc2)nc1-c1ccccc1
14,115 to 119,COc1ccccc1S(=O)(=O)Cl
15,152 to 154,Cc1ccc2cccc(C(=O)O)c2n1
16,182 to 184,N#Cc1ccccc1Sc1ccc(C(=O)O)cc1
17,146 to 148,Cc1ccc(-c2ccccc2C(=O)O)cc1
18,98 to 100,CCOc1c(C#N)cnc2ccccc12
19,249 to 251,Cc1cccc(-c2nc3cc(Cl)ccc3[nH]2)c1O
20,174 to 176,O=C(O)CNC(=O)c1ccccc1I
21,125 to 127,O=C(O)c1cccc(C(F)F)c1
22,89 to 91,O=C(O)CNC(=O)COc1ccccc1
23,75 to 77,COC(=O)c1ccc2ccccc2c1O
24,75 to 77,NC1CCN(CC(=O)Nc2ccccc2)CC1
25,117 to 119,Nc1ccccc1C(=O)Nc1ccc2c(c1)OCCO2
26,137 to 139,Cc1cc(C)n(Cc2cccc(C(N)=NO)c2)n1

row,melting point [°C],SMILES
1,61 to 63,O=C(CCl)NCC1CCN(c2ccccc2)C1 (stereo not drawn)
2,194 to 196,Cc1ccc(-n2cc(C(=O)O)c(-c3ccccc3)n2)cc1
3,161 to 163,O=C(O)c1ccc(Cn2cccc2)cc1
4,48 to 50,CS(=O)(=O)c1cccc(C(N)c2ccccc2)c1 (stereo not drawn)
5,334 to 336,Nc1cc(C(=O)O)ccc1-n1cnnc1
6,160 to 162,Oc1cn(-c2ccccc2)nn1
7,120 to 122,c1ccc2c(c1)CNc1ccccc1-2
8,58 to 60,O=C(O)C(S)c1ccccc1 (stereo not drawn)
9,65 to 68,Cc1cc(S(=O)(=O)Nc2ccccc2C(=O)O)ccc1F
10,153 to 157,O=S(=O)(c1ccc(Cl)nc1)N1CCC(Cc2ccccc2)CC1
11,214 to 216,O=C(O)c1cnn(-c2ccc(F)cc2)n1
12,129 to 131,Nc1cc(-c2ccoc2)nn1-c1ccccc1
13,140 to 142,NC(=O)CNCc1ccc(OCc2ccccc2)cc1
14,164 to 166,COc1ccc2cc(-c3nn(-c4ccccc4)cc3C=O)ccc2c1
15,301 to 303,O=C(NC1CC1)c1cc(S)nc2ccccc12
16,233 to 235,Cc1nc2ccccc2n1CC(=O)NN
17,149 to 151,CC(=O)N(CCc1ccccc1)CC(=O)O
18,60 to 62,Cc1nc(Cl)c2c(-c3ccccc3)c(C)sc2n1
19,135 to 137,Nc1cccc(C(=O)Nc2cnccn2)c1
20,82 to 84,CC(C)C(C(=O)O)c1cccc(Cl)c1 (stereo not drawn)
21,217 to 219,Ic1ccccc1-c1nn[nH]n1
22,331 to 333,O=C(O)CN1C(=O)Cn2c(cc3ccccc32)C1=O
23,115 to 117,CCn1c(=O)c(C(=O)CCl)c(N)n(Cc2ccccc2)c1=O
24,215 to 217,Nc1cccnc1-n1ccnc1
25,130 to 132,CNS(=O)(=O)Cc1ccccc1CN
26,119 to 121,NC(=S)Nc1cccc(Oc2ccccc2)c1
